Assay results: patent US11020414B2, “Antimicrobial compositions with cysteamine” (priority 2010, dated 2021)
Values after ≈ are worked out from the molar mass of the structure shown. Values joined by “and” are separate entries in the source; they are usually repeats but may differ in a detail not shown here. Equal values may be shown once. Where a name gives a salt, the structure may show the parent alone. Read-outs that look alike come from different tables or passages of the source.

Assays:
[1] = tested on: Pseudomonas aeruginosa Pa01; assay: FIC index of combinations with conventional antibiotics, strain Pa01; format: cell-based; settings: strain Pa01 (Col^R); for FICI (Additive) Cip: in combination with Ciprofloxacin
Procedure: (§1) The bacterial inoculum was established by the dilution method from actively-growing cultures in Mueller-Hinton (MH) broth, standardized with 0.5 McFarland turbidity standard as described in the CLSI method M26-A.
(§2) Both the bacterial inoculum and the antimicrobial agents, including the compounds structurally related to cysteamine, were added simultaneously to the plates. The plates were incubated at 37° C. for 24 h and the optical density was read at 625 nm on a microtitre plate reader (BioTek Powerwave XS, Winooski, USA). The MIC was obtained as the lowest concentration of antimicrobial showing total inhibition of bacterial growth.
(§3) The FIC corresponds to an interaction coefficient indicating whether the combination of antimicrobial agents is synergistic, additive, antagonist or neutral. The FIC is determined by comparing the activity of an agent in combination (MIC of agent A+agent B) with the activity of the agent alone (MIC of agent A or agent B) as follow (Singh et al., 2000): FIC=MICA[combination]/MICA[alone]+MICB[combination]/MICB[alone]
(§4) Additive combinations of two antimicrobial agents are indicated by a FIC index of 1, whereas a FIC index<1 indicates synergistic combinations. Neutral combinations would give a FIC between 1 and 4, a FIC index higher than 4 indicates antagonist effects between the two antimicrobial agents.
(§5) The FIC was also calculated to assess the interaction of two antimicrobial agents in combination against bacterial samples.

[2] = tested on: Pseudomonas aeruginosa Pa14; assay: FIC index of combinations with conventional antibiotics, strain Pa14; format: cell-based; settings: strain Pa14 (Col^R); for FICI (Additive) Col: in combination with Colistin; for FICI (Additive) Gent: in combination with Gentamicin; for FICI (Additive) Tob: in combination with Tobramycin
Procedure: as §1, §2, §3, §4, §5

[3] = tested on: Pseudomonas aeruginosa Pa058; assay: FIC index of combinations with conventional antibiotics, strain Pa058; format: cell-based; settings: strain Pa058 (Col^R, Cip^R Tob^R); for FICI (Additive) Cip: in combination with Ciprofloxacin; for FICI (Additive) Gent: in combination with Gentamicin
Procedure: as §1, §2, §3, §4, §5

[4] = tested on: Pseudomonas aeruginosa Pa57388A; assay: FIC index of combinations with conventional antibiotics, strain Pa57388A; format: cell-based; settings: strain Pa57388A (Col^R); for FICI (Additive) Gent: in combination with Gentamicin; for FICI (Additive) Tob: in combination with Tobramycin
Procedure: as §1, §2, §3, §4, §5

[5] = tested on: Pseudomonas aeruginosa Pa57388D; assay: FIC index of combinations with conventional antibiotics, strain Pa57388D; format: cell-based; settings: strain Pa57388D (Col^R, Gent^R); for FICI (Additive) Tob / FICI (Synergy) Tob: in combination with Tobramycin
Procedure: as §1, §2, §3, §4, §5

[6] = tested on: Pseudomonas aeruginosa Pa01; assay: MIC determination, strain Pa01; format: cell-based
Procedure: as §1
as §2, with “The MIC was obtained as the lowest concentration of antimicrobial showing total inhibition of bacterial growth.” left out
(§6) A number of compounds related in chemical structure to cysteamine were examined for antimicrobial activity; cystamine (dihydrochloride salt), taurine and 2,3-dimercaptosuccinic acid. Other compounds chemically related to cysteamine are known, but are toxic, and are therefore of no utility in a drug of this nature.

[7] = tested on: Pseudomonas aeruginosa Pa14; assay: MIC determination, strain Pa14; format: cell-based
Procedure: as §1
as §2, with “The MIC was obtained as the lowest concentration of antimicrobial showing total inhibition of bacterial growth.” left out
as §6

[8] = tested on: Pseudomonas aeruginosa Pa058; assay: MIC determination, strain Pa058; format: cell-based
Procedure: as §1
as §2, with “The MIC was obtained as the lowest concentration of antimicrobial showing total inhibition of bacterial growth.” left out
as §6

[9] = tested on: Pseudomonas aeruginosa NH57388A; assay: MIC determination, strain NH57388A; format: cell-based
Procedure: as §1
as §2, with “The MIC was obtained as the lowest concentration of antimicrobial showing total inhibition of bacterial growth.” left out
as §6

[10] = tested on: Burkholderia cepacia NCTC10743; assay: MIC100 and FIC of cysteamine and tobramycin, MH broth (CLSI) and artificial sputum medium; format: cell-based
Procedure: as §2, §3
(§7) The complex pathophysiology of CF is characterized by airway obstruction caused by abnormal mucus secretion and infection, with 60-80% of patients being chronically infected with the biofilm-forming bacteria Pseudomonas aeruginosa (George et al., 2009). With a prevalence of up to 10% in adult CF patients, B. cepacia complex is a rare but major concern due to its high virulence, morbidity and transmissibility (O'Malley, 2009; Brüssow, 2012). We tested the antimicrobial activity of cysteamine-tobramycin combinations in artificial sputum medium (Yang, et al., 2011) against 4 P. aeruginosa (PAO1, ATCC27853, DSMZ1128 and DSMZ1299) and 2 B. cepacia complex strains (NCTC10743 and NCTC10744).

[11] = tested on: Burkholderia cepacia NCTC10744; assay: as above; format: cell-based; settings: read-out: MIC100, agent alone
Procedure: as §2, §3, §7

[12] = tested on: P. aeruginosa PAO1 biofilm; assay: Minimum biofilm eradication concentration against established biofilm (FIG. 4); format: cell-based, Pseudomonas aeruginosa
[13] = tested on: 4 P. aeruginosa (PAO1, ATCC27853, DSMZ1128 and DSMZ1299) and 2 B. cepacia complex strains (NCTC10743 and NCTC10744); assay: microbe, parasite or virus in culture; format: cell-based, Pseudomonas aeruginosa; Burkholderia cepacia complex; settings: all strains
Source text: as §7

[14] = tested on: P. aeruginosa PAO1 planktonic cells; assay: MIC in physiologically-relevant ionic concentrations (FIG. 7); format: cell-based, Pseudomonas aeruginosa; settings: in the presence of Ca2+ and in the presence of DNA
Procedure: Bacterial growth was followed over a 24 h period and absorbance read using a BioTek microtitre plate reader at 625 nm. Total bacterial growth inhibition was retained in the presence of NaCl, CaCl2 or DNA and at two-fold the normal MIC100 in the presence of mucin. Tobramycin activity was inhibited in the presence of the divalent cation ca^2+ and in the presence of the anionic polymer DNA. […] A similar method as described above (1.4) was used for the determination of the antimicrobial activity of cysteamine (Lynovex®) in the presence of high ionic concentrations. […] Bacterial growth was followed over a 24 h period and absorbance read using a BioTek microtitre plate reader at 625 nm.

P. aeruginosa ATCC 27853 = assay: MIC and FIC of antibiotics with cysteamine, environments mimicking a CF lung; format: cell-based, Pseudomonas aeruginosa
Procedure: as §2, §3
The range of concentrations of antimicrobial agents was 0-10 μg/ml.

[15] = in combination with Ciprofloxacin
[16] = in combination with Colistin, hydrochloride
[17] = in combination with Gentamicin, hydrochloride
[18] = in combination with Tobramycin, hydrochloride
[19] = in combination with Ciprofloxacin, hydrochloride

Structure (SMILES): CC(=O)N[C@@H](CS)C(=O)O [N-Acetyl Cysteine (NAC), N-Acetyl cysteine, reference compound]
- FICI (Additive) Cip [1]: 0.56 and 0.75
- FICI (Additive) Tob ([1]; in combination with Tobramycin): 0.53 and 0.52 and 0.5 and 0.56
- FICI (Additive) Cip [2, 15]: 0.56 and 0.75
- FICI (Additive) Col [2]: 0.5 and 0.75
- FICI (Additive) Gent [2]: 0.51 and 0.52
- FICI (Additive) Tob [2]: 0.63 and 0.5 and 0.75
- FICI (Additive) Cip [3]: 0.56 and 0.75
- FICI (Additive) Col ([3]; in combination with Colistin): 0.53
- FICI (Additive) Gent [3]: 0.53
- FICI (Additive) Tob ([3]; in combination with Tobramycin): 0.75 and 0.53 and 0.51
- FICI (Additive) Cip [4, 15]: 0.63 and 0.5 and 0.56
- FICI (Additive) Col ([4]; in combination with Colistin): 0.56 and 0.75 and 0.52
- FICI (Additive) Gent [4]: 0.63
- FICI (Additive) Tob [4]: 0.53
- FICI (Additive) Cip [5, 15]: 0.53 and 0.75
- FICI (Additive) Col ([5]; in combination with Colistin): 0.56 and 0.75 and 0.53 and 0.5 and 0.51
- FICI (Additive) Tob [5]: 0.56 and 0.63
- FICI (Synergy) Tob [5]: 0.25 and 0.31

Structure (SMILES): NCCSSCCN [Cystamine, cystamine]
- MIC50 [6]: 250 to 1000 µg/mL (≈ 1.64 to 6.57 mM)
- MIC90 [6]: 1000 to 2000 µg/mL (≈ 6.57 to 13.1 mM)
- MIC ([6]; read-out: MIC100): 2000 µg/mL (≈ 13.1 mM)
- MIC50 [7]: 125 to 250 µg/mL (≈ 0.821 to 1.64 mM)
- MIC90 [7]: 1000 to 2000 µg/mL (≈ 6.57 to 13.1 mM)
- MIC ([7]; read-out: MIC100): 2000 µg/mL (≈ 13.1 mM)
- MIC50 [8]: 250 to 500 µg/mL (≈ 1.64 to 3.28 mM)
- MIC90 [8]: 1000 to 2000 µg/mL (≈ 6.57 to 13.1 mM)
- MIC ([8]; read-out: MIC100): 2000 µg/mL (≈ 13.1 mM)
- MIC50 [9]: 500 to 1000 µg/mL (≈ 3.28 to 6.57 mM)
- MIC90 [9]: 1000 to 2000 µg/mL (≈ 6.57 to 13.1 mM)
- MIC ([9]; read-out: MIC100): 2000 µg/mL (≈ 13.1 mM)

Structure (SMILES): NCCS [Cysteamine Hydrochloride (Cyst HCl), Cysteamine hydrochloride]
- FICI (Additive) Cip ([1]; hydrochloride): 0.75 and 0.52 and 0.56
- FICI (Additive) Col [1, 16]: 0.5
- FICI (Additive) Gent [1, 17]: 0.75 and 0.5
- FICI (Additive) Tob [1, 18]: 0.51 and 0.53 and 0.5
- FICI (Synergy) Tob [1, 18]: 0.25 and 0.31 and 0.38 and 0.28 and 0.19
- FICI (Additive) Cip [2, 19]: 0.56 and 0.63 and 0.5
- FICI (Synergy) Cip [2, 19]: 0.31 and 0.37 and 0.38
- FICI (Additive) Col ([2]; hydrochloride): 0.51 and 0.5 and 0.53 and 0.52
- FICI (Additive) Gent ([2]; hydrochloride): 0.5 and 0.63 and 0.56
- FICI (Additive) Tob ([2]; hydrochloride): 0.63 and 0.75 and 0.5
- FICI (Additive) Cip ([3]; hydrochloride): 0.53 and 0.63 and 0.75 and 0.56
- FICI (Additive) Col [3, 16]: 0.52 and 0.75 and 0.56 and 0.5
- FICI (Synergy) Col [3, 16]: 0.38
- FICI (Additive) Gent ([3]; hydrochloride): 0.75
- FICI (Additive) Cip [4, 19]: 0.53 and 0.5 and 0.63 and 0.56 and 0.75
- FICI (Synergy) Cip [4, 19]: 0.19 and 0.25
- FICI (Additive) Col [4, 16]: 0.53 and 0.52 and 0.5
- FICI (Synergy) Col [4, 16]: 0.25 and 0.31 and 0.19 and 0.26
- FICI (Additive) Gent ([4]; hydrochloride): 0.63
- FICI (Additive) Tob ([4]; hydrochloride): 0.63 and 0.75
- FICI (Additive) Cip [5, 19]: 0.56 and 0.53
- FICI (Synergy) Cip [5, 19]: 0.31 and 0.38
- FICI (Additive) Col [5, 16]: 0.52 and 0.53
- FICI (Synergy) Col [5, 16]: 0.19 and 0.28 and 0.25 and 0.31
- FICI (Additive) Gent [5, 17]: 0.53 and 0.52
- FICI (Additive) Tob ([5]; hydrochloride): 0.51 and 0.5
- FICI (Synergy) Tob ([5]; hydrochloride): 0.25 and 0.31 and 0.19

Structure (SMILES): NC[C@H]1O[C@H](O[C@H]2[C@H](O)[C@@H](O[C@H]3O[C@H](CO)[C@@H](O)[C@H](N)[C@H]3O)[C@H](N)C[C@@H]2N)[C@H](N)C[C@@H]1O [Tobramycin, reference compound]
- MIC ([10]; NCTC10743, B. cepacia NCTC10743, FIG. 6, read-out: MIC100, agent alone): > 16 µg/mL
- MIC ([10]; NCTC10743, B. cepacia NCTC10743, in both media (MH broth and ASM), FIG. 11, read-out: MIC100, agent alone): > 16 µg/mL
- MIC ([10]; NCTC10743, B. cepacia NH10743, ASM (Artificial Sputum Medium), read-out: MIC100, agent alone): > 16 µg/mL
- MIC ([10]; NCTC10743, B. cepacia NH10743, CLSI, read-out: MIC100, agent alone): > 16 µg/mL
- MIC ([11]; NCTC10744, B. cepacia NH10744, ASM (Artificial Sputum Medium)): > 16 µg/mL
- MIC ([11]; NCTC10744, B. cepacia NH10744, CLSI): > 16 µg/mL
- minimum biofilm eradication concentration (MBEC), agent alone [12]: 4 µg/mL
- tobramycin activity in the presence of cysteamine [13]: enhanced
- Tobramycin activity [14]: inhibited
- MIC upon administration with cysteamine compared to administration alone (P. aeruginosa ATCC 27853; environments mimicking those found in a CF lung): greatly reduced
- antimicrobial effect in combination with cysteamine (P. aeruginosa ATCC 27853; mucolytic environment): maintained
